Here are results for 43 compounds from patent US20230348456A1, “QUINAZOLINONES, PHARMACEUTICAL COMPOSITIONS CONTAINING THE SAME, AND METHODS OF USING THE SAME” (Repare Therapeutics Inc., priority 2022, published 2023).

Chain of recombinant human Myt1 (Q99640 whole entry): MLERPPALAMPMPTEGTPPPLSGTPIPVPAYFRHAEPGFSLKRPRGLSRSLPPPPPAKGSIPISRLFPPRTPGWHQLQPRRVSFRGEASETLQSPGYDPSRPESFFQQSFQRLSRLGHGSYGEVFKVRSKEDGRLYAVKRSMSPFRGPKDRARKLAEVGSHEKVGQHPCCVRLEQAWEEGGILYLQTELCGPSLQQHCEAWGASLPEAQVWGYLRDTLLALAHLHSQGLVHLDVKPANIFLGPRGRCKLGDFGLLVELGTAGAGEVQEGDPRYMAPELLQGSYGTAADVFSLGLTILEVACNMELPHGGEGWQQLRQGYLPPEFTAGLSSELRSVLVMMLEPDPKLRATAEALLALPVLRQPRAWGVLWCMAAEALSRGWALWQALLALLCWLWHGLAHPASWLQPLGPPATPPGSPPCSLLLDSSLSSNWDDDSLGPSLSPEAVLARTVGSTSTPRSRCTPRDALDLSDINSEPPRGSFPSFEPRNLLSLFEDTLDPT

The assay concerns the target recombinant human Myt1 (Homo sapiens (Human), UniProt Q99640). Description: Myt1 enzymatic assay (ADP-Glo kinase assay). The format is biochemical. Conditions: recombinant human Myt1 18 nM, ATP 10 μM. How it is done: Detection of Myt1 kinase activity utilized a recombinant human Myt1 kinase assay measuring the hydrolysis of ATP using a commercially available ADP-Glo Assay (ADP-Glo™ Kinase Assay from Promega, 10 000 assays, #V9102). Briefly, 5 μL recombinant human Myt1 (full length PKMYT1 recombinant human protein expressed in insect cells from Thermo Fisher #A33387; ˜80% purity) was prepared in reaction buffer (70 mM HEPES, 3 mM MgCl2, 3 mM MnCl2, 50 μg/ml PEG 20000, 3 μM Na-orthovanadate, 1.2 mM DTT) and added to 384 well white polystyrene, flat bottom well, non-treated, microplate (Corning #3572). After this, 5 μL of compounds (diluted in reaction buffer to 0.5% DMSO) was added to the microplate and the plate was spun briefly and incubated at 22° C. for 15 minutes. Ultra-Pure Adenosine Triphosphate (ATP) solution (ADP-Glo kit from Promega) was diluted in reaction buffer and 5 μL was added to the microplate, spun down briefly and incubated for 60 minutes at 30° C. The final Myt1 enzyme concentration was 18 nM and the final ATP concentration was 10 μM. After the 60-minute incubation, 15 μL of ADP-Glo reagent was added and the plate was spun briefly and sealed and incubated in the dark for 40 minutes at 22° C. Following this, 30 μL of kinase detection reagent was added per well and the plate was spun briefly, sealed and incubated for 45-60 minutes at 22° C. in the dark. Luminescence was read using the Envision (250 ms integration). The IC50 and the % max inhibition were calculated for each inhibitor compound tested.
On the technique in general: ADP-Glo first removes unused ATP, then detects ADP through luciferase.
Regarding `Cc1ccc(O)cc1-c1cc(-c2nccs2)c2cc[nH]c(=O)c2c1N` [Compound 164, 8-amino-7-(5-hydroxy-2-methyl-phenyl)-5-thiazol-2-yl-2H-isoquinolin-1-one], the half-inhibitory concentration (IC50) was determined as 12 nM.
With `Nc1c(-c2cccc3[nH]ncc23)cc(-c2nccs2)c2nc(Oc3ccccc3)[nH]c(=O)c12` [Compound 165, 5-amino-6-(1H-indazol-4-yl)-2-phenoxy-8-(thiazol-2-yl)quinazolin-4(3H)-one], the IC50 came out at 596 nM.
Consider `Cc1ccc(O)cc1-c1cc(-c2ncc(C(=O)NC(C)C)s2)c2c(c1N)C(=O)NC2` [Compound 153], for which the IC50 is 477 nM.
Under `COCCNc1ccc(-c2nc3c(Br)cc(-c4cccc5[nH]ncc45)c(N)c3c(=O)[nH]2)cn1` [Compound 29] stands 3 nM; under `Nc1c(-c2cccc3[nH]ncc23)cc(-c2cccc(OCC(=O)O)c2)c2nc[nH]c(=O)c12` [Compound 94], 46 nM.
Under `Cc1ccc2[nH]ncc2c1-c1cc(-c2cccc(OCc3ncccn3)n2)c2nc[nH]c(=O)c2c1N` [Compound 102] stands 10 nM; under `Nc1c(-c2cccc3[nH]ncc23)cc(-c2nccs2)c2nc(-c3cccc(CN4CCOCC4)c3)[nH]c(=O)c12` [Compound 40], 18 nM; under `Nc1c(-c2cccc3[nH]ncc23)cc(-c2ccc(F)cc2)c2nc[nH]c(=O)c12` [Compound 48, 5-amino-8-(4-fluorophenyl)-6-(1H-indazol-4-yl) quinazolin-4(3H)-one], 30 nM.
Under `Nc1c(-c2cccc3[nH]ncc23)cc(Br)c2nc(-c3ccc(N4CCN(CCO)CC4)nc3)[nH]c(=O)c12` [Compound 36] stands 76 nM; under `Cc1ccc2[nH]ncc2c1-c1cc(-c2cccc(OC[C@H]3COCCO3)n2)c2nc[nH]c(=O)c2c1N` [Compound 97], 10 nM; under `CC(=O)Nc1ccc(-c2nc3c(-c4nccs4)cc(-c4cccc5[nH]ncc45)c(N)c3c(=O)[nH]2)cc1` [Compound 17], 78 nM.
On to `Cc1ccc(O)cc1-c1cc(-c2ncc(C(=O)N3CCOCC3)s2)c2c(c1N)C(=O)NC2` [Compound 152], for which the IC50 came to 683 nM.
As for `Cc1cccc(-c2nc3c(-c4nccs4)cc(-c4cccc5[nH]ncc45)c(N)c3c(=O)[nH]2)c1` [Compound 20], the IC50 turned out to be 10 nM.
Under `COCc1nc2c(-c3nccs3)cc(-c3cccc4[nH]ncc34)c(N)c2c(=O)[nH]1` [Compound 43] stands 20 nM; under `Cc1ccc2[nH]ncc2c1-c1cc(-c2cccc(OCc3nccn3C)n2)c2nc[nH]c(=O)c2c1N` [Compound 90], 11 nM.
Under `Cc1ccc(O)cc1-c1cc(-c2nccs2)c2c(c1N)C(=O)NC2` [Compound 93] stands 22 nM.
For `Nc1c(-c2cccc3[nH]ncc23)cc(Br)c2nc[nH]c(=O)c12` [Compound 106], the IC50 amounted to 24 nM.
The result for `Nc1c(-c2cccc3[nH]ncc23)cc(-c2nccs2)c2nc(C3CCOCC3)[nH]c(=O)c12` [Compound 13] reads 1410 nM; that for `Nc1c(-c2cccc3[nH]ncc23)cc(-c2nccs2)c2nc[nH]c(=O)c12` [Compound 28], 4 nM; that for `Nc1c(-c2cccc3[nH]ncc23)cc(-c2cccc(OCCN3CCOCC3)n2)c2nc(-c3ccncc3)[nH]c(=O)c12` [Compound 50, 5-amino-6-(1H-indazol-4-yl)-8-[6-(2-morpholinoethoxy)-2-pyridyl]-2-(4-pyridyl)-3H-quinazolin-4-one], 2 nM.
Turning to `Nc1c(-c2cccc3[nH]ncc23)cc(Br)c2nc(-c3ccc(NC4COC4)nc3)[nH]c(=O)c12` [Compound 35], the 50% inhibitory concentration (IC50) was determined as 29 nM.
Under `CS(=O)(=O)c1ccc(-c2nc3c(-c4nccs4)cc(-c4cccc5[nH]ncc45)c(N)c3c(=O)[nH]2)cc1` [Compound 14] stands 6 nM; under `CN1CCC(n2cc(-c3cc(-c4cccc5[nH]ncc45)c(N)c4c(=O)[nH]c(-c5ccncc5)nc34)cn2)CC1` [Compound 60], 3 nM.
The result for `Cc1ccc2[nH]ncc2c1-c1cc(-c2cccc(OC3CCOCC3)n2)c2nc[nH]c(=O)c2c1N` [Compound 110] reads 7 nM; that for `Cc1ccc(O)cc1-c1cc(-c2nc(CN3CCOCC3)cs2)c2c(c1N)C(=O)NC2` [Compound 146], 135 nM; that for `Nc1c(-c2cccc3[nH]ncc23)cc(-c2cnn(C3CCOCC3)c2)c2nc(-c3cccnc3)[nH]c(=O)c12` [Compound 81], 4 nM.
The result for `Cc1ccc2[nH]ncc2c1-c1cc(-c2cccc(OC[C@@H]3COCCO3)n2)c2nc[nH]c(=O)c2c1N` [Compound 101] reads 11 nM; that for `Cc1ccc(O)cc1-c1cc(-c2ncc(C#N)s2)c2c(c1N)C(=O)NC2` [Compound 155], 179 nM.
`Nc1c(-c2cccc3[nH]ncc23)cc(Br)c2nc(-c3ccc(N4CCNCC4)nc3)[nH]c(=O)c12` [Compound 10]: the IC50 worked out at 3 nM.
As to `Nc1c(-c2cccc3[nH]ncc23)cc(-c2ncc(C(F)(F)F)s2)c2nc[nH]c(=O)c12` [Compound 115], the IC50 amounted to 109 nM.
The result for `Cc1ccc(O)cc1-c1cc(Br)c2nc[nH]c(=O)c2c1N` [Compound 138] reads 41 nM; that for `Nc1c(-c2cccc3[nH]ncc23)cc(-c2cccc(OCCN3CCOCC3)c2)c2nc(-c3ccncc3)[nH]c(=O)c12` [Compound 52], 5 nM; that for `Nc1c(-c2cccc3[nH]ncc23)cc(-c2nccs2)c2nc(-c3ccnc(N4CCOCC4)c3)[nH]c(=O)c12` [Compound 15, 5-amino-6-(1H-indazol-4-yl)-2-(2-morpholinopyridin-4-yl)-8-(thiazol-2-yl)quinazolin-4(3H)-one], 10 nM.
The result for `Nc1c(-c2cccc3[nH]ncc23)cc(-c2cccc(OC[C@@H]3CCCO3)n2)c2nc(-c3ccncc3)[nH]c(=O)c12` [Compound 55] reads 4 nM; that for `Nc1c(-c2cccc3[nH]ncc23)cc(Br)c2nc(-c3ccc(N4CCOCC4)nc3)[nH]c(=O)c12` [Compound 25, 5-amino-8-bromo-6-(1H-indazol-4-yl)-2-(6-morpholinopyridin-3-yl)quinazolin-4(3H)-one 2,2,2-trifluoroacetate], 23 nM; that for `Nc1c(-c2cccc3[nH]ncc23)cc(-c2nccs2)c2nc(-c3ccncc3)[nH]c(=O)c12` [Compound 33], 9 nM.
For `CN(C)c1ccc(-c2nc3c(Br)cc(-c4cccc5[nH]ncc45)c(N)c3c(=O)[nH]2)cn1` [Compound 12], the IC50 is 9 nM.
For the compound `CC(=O)N1CC=C(c2cc(-c3cccc4[nH]ncc34)c(N)c3c(=O)[nH]c(-c4ccncc4)nc23)CC1` [Compound 57], the 50% inhibitory concentration (IC50) stood at 2 nM.
Under `Cc1ccc(O)cc1-c1cc(C2=CCOCC2)c2c(c1N)C(=O)NC2` [Compound 105] stands 641 nM; under `Cc1ccc(O)cc1-c1cc(-c2ncc(CN3CCOCC3)s2)c2c(c1N)C(=O)NC2` [Compound 143], 1600 nM.
Under `Cc1ccc2[nH]ncc2c1-c1cc(-c2cccc(F)n2)c2nc[nH]c(=O)c2c1N` [Compound 99] stands 17 nM.
Regarding `Cc1nc2c(-c3nccs3)cc(-c3cccc4[nH]ncc34)c(N)c2c(=O)[nH]1` [Compound 9], the IC50 amounted to 47 nM.
Consider `Cc1ccc(O)c(C)c1-c1cc(-c2nccs2)c2c(c1N)C(=O)NC2` [Compound 139], for which the IC50 came out at 7 nM.

As usually defined, the IC50 is the concentration needed to halve the response being measured.
